Data reported in BindingDB's records for doi:10.1016/s0960-894x(03)00160-4 (Universidad Complutense, 2003).
pKi: −log10 of the molar value.

Molecular target: T1, Alpha-1A/Alpha-1B/Alpha-1D adrenergic receptor (Rattus norvegicus, UniProt P15823+P43140+P23944)
T1 sequence (P15823 whole entry): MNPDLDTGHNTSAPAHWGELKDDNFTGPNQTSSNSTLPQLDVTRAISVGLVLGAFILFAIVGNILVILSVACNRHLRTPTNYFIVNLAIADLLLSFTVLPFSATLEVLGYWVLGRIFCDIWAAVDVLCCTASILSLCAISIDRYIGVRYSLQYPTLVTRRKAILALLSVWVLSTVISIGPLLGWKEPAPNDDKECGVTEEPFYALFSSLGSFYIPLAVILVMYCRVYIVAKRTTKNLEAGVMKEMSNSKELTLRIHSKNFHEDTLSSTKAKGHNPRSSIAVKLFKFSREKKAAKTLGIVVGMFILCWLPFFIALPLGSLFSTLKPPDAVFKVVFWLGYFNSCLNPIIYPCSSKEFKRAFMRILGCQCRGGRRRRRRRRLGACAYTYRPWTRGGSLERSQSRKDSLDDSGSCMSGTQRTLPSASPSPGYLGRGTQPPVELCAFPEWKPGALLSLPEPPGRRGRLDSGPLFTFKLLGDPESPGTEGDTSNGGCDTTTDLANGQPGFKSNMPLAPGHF
T1 sequence (P43140 whole entry): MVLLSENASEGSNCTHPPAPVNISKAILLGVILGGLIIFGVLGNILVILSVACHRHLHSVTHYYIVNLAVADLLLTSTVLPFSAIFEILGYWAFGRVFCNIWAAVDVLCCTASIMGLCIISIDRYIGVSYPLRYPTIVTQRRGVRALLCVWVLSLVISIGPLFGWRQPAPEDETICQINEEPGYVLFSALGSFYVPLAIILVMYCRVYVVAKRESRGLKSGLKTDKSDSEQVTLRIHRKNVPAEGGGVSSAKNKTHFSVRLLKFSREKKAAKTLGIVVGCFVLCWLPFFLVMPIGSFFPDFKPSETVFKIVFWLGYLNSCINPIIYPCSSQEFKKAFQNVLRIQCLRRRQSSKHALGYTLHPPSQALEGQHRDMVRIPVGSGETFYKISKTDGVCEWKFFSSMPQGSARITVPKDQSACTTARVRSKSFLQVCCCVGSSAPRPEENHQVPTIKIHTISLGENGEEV
T1 sequence (P23944 whole entry): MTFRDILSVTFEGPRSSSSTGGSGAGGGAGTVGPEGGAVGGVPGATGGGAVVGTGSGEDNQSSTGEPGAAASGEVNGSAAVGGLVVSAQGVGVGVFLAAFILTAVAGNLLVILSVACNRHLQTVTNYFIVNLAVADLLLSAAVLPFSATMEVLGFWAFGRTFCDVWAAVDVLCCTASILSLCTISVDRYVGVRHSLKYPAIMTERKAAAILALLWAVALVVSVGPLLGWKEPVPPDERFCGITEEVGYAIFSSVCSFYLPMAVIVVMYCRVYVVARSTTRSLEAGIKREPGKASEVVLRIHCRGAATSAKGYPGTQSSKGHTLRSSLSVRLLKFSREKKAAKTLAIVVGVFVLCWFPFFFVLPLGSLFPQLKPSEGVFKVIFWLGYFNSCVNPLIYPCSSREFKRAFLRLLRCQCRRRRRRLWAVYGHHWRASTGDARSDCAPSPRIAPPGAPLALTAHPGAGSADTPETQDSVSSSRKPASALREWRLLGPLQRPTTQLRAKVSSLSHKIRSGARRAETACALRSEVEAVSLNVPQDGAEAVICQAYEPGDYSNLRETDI
Test: Binding affinity towards Alpha-1 adrenergic receptor in rat cerebral cortex membranes using [3H]prazosin as radioligand

- pKi: < 6.00
Compound: O=c1n(CN2CCN(c3cccc4ccccc34)CC2)c(O)c2n1CCC2 [2-(4-Naphthalen-1-yl-piperazin-1-ylmethyl)-tetrahydro-pyrrolo[1,2-c]imidazole-1,3-dione]
